Data as given in patent US11273169B2, “Food for improving intestinal environment” (AJINOMOTO CO., INC., priority 2017, dated 2022).

System: lactic acid bacteria group (mainly, Lactobacillus spp.)
Test: Addition test of γ-PGA and fructo-oligosaccharide to human feces suspension
Format: cell-based
Conditions: human feces suspension in PBS medium, anaerobic culture 37° C. 4 days, quantitative PCR, 0.1-1.0% γ-PGA, 0.5% FOS, n=6
Experimental: The PBS solutions of Examples and Comparative Examples shown in Table 1 were prepared and used as media for feces culture. PBS alone was used as a negative control. As γ-PGA, polyglutamic acid “CALTAKE” manufactured by Ajinomoto Co., Inc. was used, and as FOS, fructo-oligosaccharide manufactured by Wako Pure Chemical Industries, Ltd. was used.
Thereafter, 10 ml each was dispensed into glass vials and the glass vials were sterilized by autoclave, made anaerobic, and sealed with a butyl rubber stopper. The feces suspension was prepared by collecting about 10 g of feces from 6 healthy individuals (3 men and 3 women) in their 20s to 40s and suspending same in 80 ml of anaerobic PBS. […] DNA was extracted from this pellet using ISOFECAL for BeadsBeat (manufactured by NIPPON GENE CO., LTD.), and quantitative PCR was performed using GeneAce SYBR qPCR Mix α (manufactured by NIPPON GENE CO., LTD.). Quantitative PCR was performed under the conditions of 45 cycles of 95° C. for 30 sec and 60° C. for 60 sec after 95° C. for 10 min. Primers for quantitative PCR used for detection of lactic acid bacteria group (mainly, Lactobacillus spp.) were as follows.
Using the results obtained by quantitative PCR, the relative amount when PBS alone (negative control) is 1 was calculated, and the results were normalized with z-score. […]

Substance: γ-polyglutamic acid [γ-PGA]
- proliferation of the lactic acid bacteria group: not observed
